According to ChEMBL document CHEMBL1159008, “Isolation, NMR studies, and biological activities of onopordopicrin from Centaurea sonchifolia” (J Nat Prod, 1992):
Converted amounts (≈) assume the structure as drawn. The source made the active and inactive calls. The rule behind the calls is not given here.

How the values were obtained:
[1] = test system: KB; assay: Cytotoxicity against human KB cells; assay type: functional, cell-based
[2] = test system: Staphylococcus aureus; assay: Antibacterial activity against Staphylococcus aureus ATCC 25923 by disk diffusion assay; assay type: functional, organism-based
[3] = test system: Candida albicans; assay: Antifungal activity against Candida albicans A-26 at 250 ug/dsik; assay type: functional, organism-based
[4] = test system: Trichophyton mentagrophytes; assay: Antifungal activity against Trichophyton mentagrophytes A-23 at 250 ug/dsik; assay type: functional, organism-based
[5] = test system: Saccharomyces cerevisiae; assay: Antifungal activity against Saccharomyces cerevisiae M25 at 250 ug/dsik; assay type: functional, organism-based

Structure (SMILES): C=C(CO)C(=O)O[C@H]1C/C(C)=C\CC/C(CO)=C\[C@H]2OC(=O)C(=C)[C@H]12 [ONOPORDOPICRIN]
- EC50 [1]: 0.85 µg/mL (≈ 2.44 µM)
- Activity [2]: Active
- Activity [3]: inactive
- Activity [4]: inactive
- Activity [5]: inactive
